Data reported in US20060069132A1, “Azolecarboxamide herbicides” (priority 2004, published 2006).

Legend:
large crabgrass = test: Test C pre-/postemergence herbicide test; type: in vivo, Digitaria sanguinalis; details: for Crabgrass, Large plant response rating: 500 g ai/ha
In short: (§1)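 Pre/post spray; non-phytotoxic solvent + surfactant. Post-timing 1–4 leaves, 2–18 cm. Read-out: visual % control vs untreated, day 12–14, greenhouse.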

goosegrass = test: Test C pre-/postemergence herbicide test; type: in vivo, Eleusine indica; details: for Goosegrass plant response rating: 500 g ai/ha
In short: as §1

morningglory = test: Test A pre-/postemergence herbicide test; type: in vivo, Ipomoea spp.
In short: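 Greenhouse injury scoring (0–100, complete control = 100) at approximately ten days follows simultaneous pre- and postemergence application. Soil received a directed spray after seeding; seedlings of 2–10 cm at the one- to two-leaf stage were sprayed to runoff.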

kochia = test: Test C pre-/postemergence herbicide test; type: in vivo, Kochia scoparia; details: for Kochia plant response rating: 500 g ai/ha
In short: as §1

wild oat = test: Test B postemergence herbicide test; type: in vivo, Avena fatua; details: scale 0 (no effect) to 100 (complete control); for Plant response rating, Oat, Wild: Postemergence, 500 g ai/ha, visual rating after 13 to 15 days; for Oat, Wild plant response rating: postemergence, 125 g ai/ha, visual rating
In short: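 Postemergence plants were sprayed with formulated test chemicals at 2 to 18 cm height (1- to 4-leaf stage); paddy species were grown to the 2-leaf stage. After 13 to 15 days in a greenhouse, injury was rated visually against untreated controls on a 0–100 scale (0 = no effect, 100 = complete control).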

common ragweed = test: Test C pre-/postemergence herbicide test; type: in vivo, Ambrosia elatior; set-up: key to Plant response rating, Ragweed: 0 = no effect, 100 = complete control; details: for Ragweed plant response rating: 500 g ai/ha
In short: as §1

pigweed [1] = test: Test C pre-/postemergence herbicide test; type: in vivo, Amaranthus retroflexus; details: for Pigweed plant response rating: 500 g ai/ha
In short: as §1

lambsquarters = test: Test C pre-/postemergence herbicide test; type: in vivo, Chenopodium album; details: for Lambsquarters plant response rating: 500 g ai/ha
In short: as §1

pigweed [2] = test: Test B pre-/postemergence herbicide test; type: in vivo, Amaranthus retroflexus; details: for Pigweed plant response rating: postemergence, visual rating
In short: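 Formulation: non-phytotoxic solvent mix with surfactant. Timing: preemergence on seed and postemergence on 2–18 cm plants, applied concurrently. Readout after 13–15 d greenhouse: visual 0–100 control rating against controls.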

[3] = 31 g ai/ha, preemergence, scale 0 to 100
[4] = 125 g ai/ha, scale 0 (no effect) to 100 (complete control), visual, 12 to 14 days, preemergence
[5] = 250 g ai/ha, scale 0 to 100 (0 no effect, 100 complete control), visual, 12 to 14 days, preemergence
[6] = Postemergence, 250 g ai/ha, scale 0 to 100, 0 no effect, 100 complete control
[7] = postemergence, 125 g ai/ha, scale 0 to 100
[8] = postemergence, 62 g ai/ha, scale 0 to 100
[9] = Postemergence, 500 g ai/ha, 0 to 100 scale, 0 no effect, 100 complete control
[10] = Postemergence, 2000 g ai/ha, 0 to 100 scale, 0 no effect, 100 complete control
[11] = Preemergence, 500 g ai/ha, visual rating, 0 to 100 scale (0 no effect, 100 complete control)
[12] = Preemergence, 2000 g ai/ha, 0 to 100 scale, 0 no effect, 100 complete control
[13] = Postemergence, 500 g ai/ha, visual rating after 13 to 15 days, scale 0 (no effect) to 100 (complete control)
[14] = 125 g ai/ha, scale 0 (no effect) to 100 (complete control)
[15] = preemergence, 125 g ai/ha, 0 to 100 scale, 0 is no effect, 100 is complete control
[16] = Preemergence, scale 0 to 100, 0 no effect, 100 complete control

## CCn1nc(C(C)(C)C)cc1C(=O)Nc1ccc(F)c(C(=O)NCCF)c1 [Compound 60]
Large crabgrass; [3]
  Plant response rating, Crabgrass, Large: 80
Large crabgrass; 62 g ai/ha, preemergence
  Plant response rating (0 = no effect, 100 = complete control), Crabgrass, Large: 90
Large crabgrass; [4]
  Plant response rating, Crabgrass, Large: 90
Large crabgrass; [5]
  Plant response rating, Crabgrass, Large: 95
Large crabgrass; [6]
  Plant response rating, Crabgrass, Large: 5
Large crabgrass; [7]
  Plant response rating, Crabgrass, Large: 0
Large crabgrass; [8]
  Plant response rating, Crabgrass, Large: 0
goosegrass; [3]
  Plant response rating, Goosegrass: 10
goosegrass; 62 g ai/ha, preemergence
  Plant response rating (0 = no effect, 100 = complete control), Goosegrass: 55
goosegrass; [4]
  Plant response rating, Goosegrass: 85
goosegrass; [5]
  Plant response rating, Goosegrass: 95
goosegrass; [6]
  Plant response rating, Goosegrass: 5
goosegrass; [7]
  Plant response rating, Goosegrass: 0
goosegrass; [8]
  Plant response rating, Goosegrass: 0
morningglory; [9]
  Plant response rating, Morningglory: 10
morningglory; [10]
  Plant response rating, Morningglory: 20
morningglory; [11]
  Morningglory plant response rating: 10
morningglory; [12]
  Morningglory plant response rating: 40
kochia; [3]
  Plant response rating, Kochia: 80
kochia; 62 g ai/ha, preemergence
  Plant response rating (0 = no effect, 100 = complete control), Kochia: 80
kochia; [4]
  Plant response rating, Kochia: 90
kochia; [5]
  Plant response rating, Kochia: 90
kochia; [6]
  Plant response rating, Kochia: 20
kochia; [7]
  Plant response rating, Kochia: 20
kochia; [8]
  Plant response rating, Kochia: 10
Wild oat
  Plant response rating, Oat, Wild: 20
  Oat, Wild plant response rating: 20
Common ragweed; [3]
  Plant response rating, Ragweed: 0
Common ragweed; 62 g ai/ha, preemergence
  Plant response rating (0 = no effect, 100 = complete control), Ragweed: 10
Common ragweed; [4]
  Plant response rating, Ragweed: 80
Common ragweed; [5]
  Plant response rating, Ragweed: 95
Common ragweed; [6]
  Plant response rating, Ragweed: 5
Common ragweed; [7]
  Plant response rating, Ragweed: 5
Common ragweed; [8]
  Plant response rating, Ragweed: 0
Pigweed [1]; [3]
  Plant response rating, Pigweed: 100
Pigweed [1]; 62 g ai/ha, preemergence
  Plant response rating (0 = no effect, 100 = complete control), Pigweed: 100
Pigweed [1]; [4]
  Plant response rating, Pigweed: 100
Pigweed [1]; [5]
  Plant response rating, Pigweed: 100
Pigweed [1]; [6]
  Plant response rating, Pigweed: 60
Pigweed [1]; [7]
  Plant response rating, Pigweed: 40
Pigweed [1]; [8]
  Plant response rating, Pigweed: 40
lambsquarters; [3]
  Plant response rating, Lambsquarters: 90
lambsquarters; 62 g ai/ha, preemergence
  Plant response rating (0 = no effect, 100 = complete control), Lambsquarters: 100
lambsquarters; [4]
  Plant response rating, Lambsquarters: 100
lambsquarters; [5]
  Plant response rating, Lambsquarters: 100
lambsquarters; [6]
  Plant response rating, Lambsquarters: 70
lambsquarters; [7]
  Plant response rating, Lambsquarters: 30
lambsquarters; [8]
  Plant response rating, Lambsquarters: 10
Pigweed [2]; [13]
  Plant response rating, Pigweed: 70
Pigweed [2]; [14]
  Pigweed plant response rating: 70
Pigweed [2]; [15]
  Plant response rating, Pigweed: 90

## C#CCOC(=O)c1cccc(NC(=O)c2cc(C(C)(C)C)nn2CC)c1 [Compound 84]
Large crabgrass; Postemergence, scale 0 to 100
  Crabgrass, Large plant response rating: 50
Large crabgrass; [6]
  Plant response rating, Crabgrass, Large: 0
Large crabgrass; [7]
  Plant response rating, Crabgrass, Large: 0
Large crabgrass; [8]
  Plant response rating, Crabgrass, Large: 0
goosegrass; Postemergence, scale 0 to 100
  Goosegrass plant response rating: 10
goosegrass; [6]
  Plant response rating, Goosegrass: 5
goosegrass; [7]
  Plant response rating, Goosegrass: 0
goosegrass; [8]
  Plant response rating, Goosegrass: 0
morningglory; [9]
  Morningglory plant response rating: 5
morningglory; [10]
  Plant response rating, Morningglory: 10
morningglory; [11]
  Morningglory plant response rating: 0
kochia; Postemergence, scale 0 to 100
  Kochia plant response rating: 80
kochia; [6]
  Plant response rating, Kochia: 10
kochia; [7]
  Plant response rating, Kochia: 0
kochia; [8]
  Plant response rating, Kochia: 0
Wild oat
  Plant response rating, Oat, Wild: 20
  Oat, Wild plant response rating: 20
Common ragweed; Postemergence, scale 0 to 100
  Ragweed plant response rating: 0
Common ragweed; [6]
  Plant response rating, Ragweed: 0
Common ragweed; [7]
  Plant response rating, Ragweed: 0
Common ragweed; [8]
  Plant response rating, Ragweed: 0
Pigweed [1]; Postemergence, scale 0 to 100
  Pigweed plant response rating: 100
Pigweed [1]; [6]
  Plant response rating, Pigweed: 100
Pigweed [1]; [7]
  Plant response rating, Pigweed: 100
Pigweed [1]; [8]
  Plant response rating, Pigweed: 100
lambsquarters; Postemergence, scale 0 to 100
  Lambsquarters plant response rating: 50
lambsquarters; [6]
  Plant response rating, Lambsquarters: 0
lambsquarters; [7]
  Plant response rating, Lambsquarters: 0
lambsquarters; [8]
  Plant response rating, Lambsquarters: 0
Pigweed [2]; [13]
  Plant response rating, Pigweed: 100
Pigweed [2]; [14]
  Pigweed plant response rating: 80
Pigweed [2]; [15]
  Plant response rating, Pigweed: 0

## C=CCOC(=O)c1cccc(NC(=O)c2cc(C(C)(C)C)nn2CC)c1 [Compound 85]
Large crabgrass; Postemergence, scale 0 to 100
  Crabgrass, Large plant response rating: 40
Large crabgrass; [6]
  Plant response rating, Crabgrass, Large: 10
Large crabgrass; [7]
  Plant response rating, Crabgrass, Large: 5
Large crabgrass; [8]
  Plant response rating, Crabgrass, Large: 0
goosegrass; Postemergence, scale 0 to 100
  Goosegrass plant response rating: 60
goosegrass; [6]
  Plant response rating, Goosegrass: 60
goosegrass; [7]
  Plant response rating, Goosegrass: 40
goosegrass; [8]
  Plant response rating, Goosegrass: 35
morningglory; [9]
  Morningglory plant response rating: 20
morningglory; [10]
  Plant response rating, Morningglory: 25
morningglory; [11]
  Morningglory plant response rating: 0
morningglory; [12]
  Morningglory plant response rating: 5
kochia; Postemergence, scale 0 to 100
  Kochia plant response rating: 90
kochia; [6]
  Plant response rating, Kochia: 90
kochia; [7]
  Plant response rating, Kochia: 60
kochia; [8]
  Plant response rating, Kochia: 20
Wild oat
  Plant response rating, Oat, Wild: 50
  Oat, Wild plant response rating: 20
Common ragweed; Postemergence, scale 0 to 100
  Ragweed plant response rating: 60
Common ragweed; [6]
  Plant response rating, Ragweed: 40
Common ragweed; [7]
  Plant response rating, Ragweed: 10
Common ragweed; [8]
  Plant response rating, Ragweed: 10
Pigweed [1]; Postemergence, scale 0 to 100
  Pigweed plant response rating: 100
Pigweed [1]; [6]
  Plant response rating, Pigweed: 100
Pigweed [1]; [7]
  Plant response rating, Pigweed: 100
Pigweed [1]; [8]
  Plant response rating, Pigweed: 100
lambsquarters; Postemergence, scale 0 to 100
  Lambsquarters plant response rating: 100
lambsquarters; [6]
  Plant response rating, Lambsquarters: 50
lambsquarters; [7]
  Plant response rating, Lambsquarters: 30
lambsquarters; [8]
  Plant response rating, Lambsquarters: 10
Pigweed [2]; [13]
  Plant response rating, Pigweed: 100
Pigweed [2]; [14]
  Pigweed plant response rating: 100
Pigweed [2]; [15]
  Plant response rating, Pigweed: 0

## CC(=NO)c1cccc(NC(=O)c2cc(C(C)(C)C)nn2C)c1 [Compound 102]
Large crabgrass; 62 g ai/ha, preemergence
  Plant response rating (0 = no effect, 100 = complete control), Crabgrass, Large: 100
Large crabgrass; [4]
  Plant response rating, Crabgrass, Large: 100
Large crabgrass; [5]
  Plant response rating, Crabgrass, Large: 100
Large crabgrass; [16]
  Crabgrass, Large plant response rating: 100
goosegrass; 62 g ai/ha, preemergence
  Plant response rating (0 = no effect, 100 = complete control), Goosegrass: 90
goosegrass; [4]
  Plant response rating, Goosegrass: 100
goosegrass; [16]
  Goosegrass plant response rating: 100
morningglory; [9]
  Morningglory plant response rating: 35
morningglory; [10]
  Plant response rating, Morningglory: 55
morningglory; [11]
  Morningglory plant response rating: 65
morningglory; Preemergence, 2000 g ai/ha, visual rating, 0 to 100 scale (0 no effect, 100 complete control)
  Morningglory plant response rating: 90
kochia; 62 g ai/ha, preemergence
  Plant response rating (0 = no effect, 100 = complete control), Kochia: 0
kochia; [4]
  Plant response rating, Kochia: 30
kochia; [16]
  Kochia plant response rating: 60
Wild oat
  Plant response rating, Oat, Wild: 40
  Oat, Wild plant response rating: 20
Common ragweed; 62 g ai/ha, preemergence
  Plant response rating (0 = no effect, 100 = complete control), Ragweed: 10
Common ragweed; [4]
  Plant response rating, Ragweed: 20
Common ragweed; [16]
  Ragweed plant response rating: 100
Pigweed [1]; 62 g ai/ha, preemergence
  Plant response rating (0 = no effect, 100 = complete control), Pigweed: 90
Pigweed [1]; [4]
  Plant response rating, Pigweed: 100
Pigweed [1]; [16]
  Pigweed plant response rating: 100
lambsquarters; 62 g ai/ha, preemergence
  Plant response rating (0 = no effect, 100 = complete control), Lambsquarters: 0
lambsquarters; [4]
  Plant response rating, Lambsquarters: 70
lambsquarters; [16]
  Lambsquarters plant response rating: 100
Pigweed [2]; 500 g ai/ha, visual rating 0-100, 0 no effect, 100 complete control, preemergence
  Plant response rating, Pigweed: 100
Pigweed [2]; [13]
  Plant response rating, Pigweed: 100
Pigweed [2]; [14]
  Pigweed plant response rating: 80
Pigweed [2]; [15]
  Plant response rating, Pigweed: 90
